Values after ≈ are worked out from the molar mass of the structure shown. Where two headings read alike, the source gives them in different places.
Tested on: S. aureus clinical isolates
Test: microbe, parasite or virus in culture
Assay type: cell-based
Conditions: Staphylococcus aureus, read-out: MIC

## C[C@H]1COc2c(N3CCN(C)CC3)c(F)cc3c(=O)c(C(=O)O)cn1c23 [Levofloxacin]
ATCC 29213 / MSSA, S. aureus ATCC 29213, MSSA / VSSA, test date 2018-10-25 (three repeat lines)
  MIC: 0.25 µg/mL (≈ 0.692 µM)
ATCC 29213 / MSSA, S. aureus ATCC 29213, MSSA / VSSA, test date 2018-11-07
  MIC: 0.25 µg/mL (≈ 0.692 µM)
MRSA / NRS 3 / VISA, S. aureus IHMA 1308243, NRS3, MRSA / VISA
  MIC: 32 µg/mL (≈ 88.6 µM)
MRSA / NRS 4 / VISA, S. aureus IHMA 649380, NRS4, MRSA / VISA
  MIC: 16 µg/mL (≈ 44.3 µM)
MRSA / NRS 18 / VISA, S. aureus IHMA 649386, NRS18, MRSA / VISA
  MIC: 16 µg/mL (≈ 44.3 µM)
MRSA / NRS 19 / VISA, S. aureus IHMA 649387, NRS19, MRSA / VISA
  MIC: 32 µg/mL (≈ 88.6 µM)
MRSA / NRS 21 / VISA, S. aureus IHMA 649388, NRS21, MRSA / VISA
  MIC: 8 µg/mL (≈ 22.1 µM)
MRSA / NRS 22 / USA600 / VISA, S. aureus IHMA 649389, NRS22, MRSA / VISA, USA600
  MIC: 16 µg/mL (≈ 44.3 µM)
MRSA / NRS 23 / VISA, S. aureus IHMA 649390, NRS23, MRSA / VISA
  MIC: 16 µg/mL (≈ 44.3 µM)
MRSA / NRS 24 / VISA, S. aureus IHMA 649391, NRS24, MRSA / VISA
  MIC: 64 µg/mL (≈ 177 µM)
MRSA / NRS 26, S. aureus IHMA 649392, NRS26, MRSA / VSSA
  MIC: 8 µg/mL (≈ 22.1 µM)
MRSA / NRS 27 / VISA, S. aureus IHMA 1308248, NRS27, MRSA / VISA
  MIC: 32 µg/mL (≈ 88.6 µM)
MRSA / NRS 29 / VISA, S. aureus IHMA 1308250, NRS29, MRSA / VISA
  MIC: 16 µg/mL (≈ 44.3 µM)
MRSA / NRS 37 / VISA, S. aureus IHMA 1308251, NRS37, MRSA / VISA
  MIC: 32 µg/mL (≈ 88.6 µM)
MRSA / NRS 54, S. aureus IHMA 1308253, NRS54, MRSA / VSSA* (*Expected VAN intermediate, confirmed VAN susceptible twice), test date 2018-11-07
  MIC: 8 µg/mL (≈ 22.1 µM)
MRSA / NRS 56 / VISA, S. aureus IHMA 1308254, NRS56, MRSA / VISA
  MIC: 8 µg/mL (≈ 22.1 µM)
MRSA / USA100 / VRSA, S. aureus IHMA 672230, VRS1, MRSA / VRSA, USA100
  MIC: 32 µg/mL (≈ 88.6 µM)
MRSA / USA100 / VRSA, S. aureus IHMA 672231, VRS2, MRSA / VRSA, USA100
  MIC: 32 µg/mL (≈ 88.6 µM)
MRSA / USA100 / VRSA, S. aureus IHMA 672234, VRS4, MRSA / VRSA, USA100
  MIC: > 64 µg/mL
MRSA / USA100 / VRSA, S. aureus IHMA 672235, VRS5, MRSA / VRSA, USA100
  MIC: 64 µg/mL (≈ 177 µM)
MRSA / USA100 / VRSA, S. aureus IHMA 672237, VRS7, MRSA / VRSA, USA100
  MIC: 64 µg/mL (≈ 177 µM)
MRSA / USA100 / VRSA, S. aureus IHMA 672238, VRS8, MRSA / VRSA, USA100
  MIC: 16 µg/mL (≈ 44.3 µM)
MRSA / USA100 / VRSA, S. aureus IHMA 672239, VRS9, MRSA / VRSA, USA100
  MIC: 64 µg/mL (≈ 177 µM)
MRSA / USA100 / VRSA, S. aureus IHMA 1308256, VRS10, MRSA / VRSA, USA100
  MIC: > 64 µg/mL
MRSA / USA100 / VRSA, S. aureus IHMA 1308258, VRS11b, MRSA / VRSA, USA100
  MIC: > 64 µg/mL
MRSA / USA800 / VRSA, S. aureus IHMA 672233, VRS3b, MRSA / VRSA, USA800
  MIC: 16 µg/mL (≈ 44.3 µM)
MRSA, S. aureus IHMA 1569509, MRSA / VSSA
  MIC: 4 µg/mL (≈ 11.1 µM)
MRSA, S. aureus IHMA 1575268, MRSA / VSSA
  MIC: 32 µg/mL (≈ 88.6 µM)
MRSA, S. aureus IHMA 1575629, MRSA / VSSA
  MIC: 8 µg/mL (≈ 22.1 µM)
MRSA, S. aureus IHMA 1577820, MRSA / VSSA
  MIC: > 64 µg/mL
MRSA, S. aureus IHMA 1580300, MRSA / VSSA
  MIC: 16 µg/mL (≈ 44.3 µM)
MRSA, S. aureus IHMA 1580940, MRSA / VSSA
  MIC: 0.5 µg/mL (≈ 1.38 µM)
MRSA, S. aureus IHMA 1582100, MRSA / VSSA
  MIC: 32 µg/mL (≈ 88.6 µM)
MRSA, S. aureus IHMA 1583795, MRSA / VSSA
  MIC: 32 µg/mL (≈ 88.6 µM)
MRSA, S. aureus IHMA 1584223, MRSA / VSSA
  MIC: 8 µg/mL (≈ 22.1 µM)
MRSA, S. aureus IHMA 1585316, MRSA / VSSA
  MIC: 32 µg/mL (≈ 88.6 µM)
MRSA, S. aureus IHMA 1586780, MRSA / VSSA
  MIC: 16 µg/mL (≈ 44.3 µM)
MRSA, S. aureus IHMA 1587322, MRSA / VSSA
  MIC: 0.25 µg/mL (≈ 0.692 µM)
MRSA, S. aureus IHMA 1588127, MRSA / VSSA
  MIC: 16 µg/mL (≈ 44.3 µM)
MRSA, S. aureus IHMA 1591462, MRSA / VSSA
  MIC: 32 µg/mL (≈ 88.6 µM)
MRSA, S. aureus IHMA 1592755, MRSA / VSSA
  MIC: 16 µg/mL (≈ 44.3 µM)
MRSA, S. aureus IHMA 1592776, MRSA / VSSA
  MIC: 0.25 µg/mL (≈ 0.692 µM)
MRSA, S. aureus IHMA 1597106, MRSA / VSSA
  MIC: 16 µg/mL (≈ 44.3 µM)
MRSA, S. aureus IHMA 1602095, MRSA / VSSA
  MIC: 0.25 µg/mL (≈ 0.692 µM)
MRSA, S. aureus IHMA 1611170, MRSA / VSSA
  MIC: 0.25 µg/mL (≈ 0.692 µM)
MRSA, S. aureus IHMA 1611612, MRSA / VSSA
  MIC: 32 µg/mL (≈ 88.6 µM)
MRSA, S. aureus IHMA 1612228, MRSA / VSSA
  MIC: 8 µg/mL (≈ 22.1 µM)
MRSA, S. aureus IHMA 1620441, MRSA / VSSA
  MIC: 32 µg/mL (≈ 88.6 µM)

Source: paper PMC7561186, “Rational design of balanced dual-targeting antibiotics with limited resistance” (PLoS Biology, 2020)
